CC(=O)N1CCN(c2ccc(OC[C@@H]3CO[C@@](Cn4ccnc4)(c4ccc(Cl)cc4Cl)O3)cc2)CC1 (racemic)
solubility (mole fraction)
Conditions | 293.2 K | 298.2 K | 303.2 K | 308.2 K | 313.2 K
in n-propanol | 0.0056 | 0.00703 | 0.00948 | 0.0128 | 0.0175
in water | 3.8e-07 | 4.25e-07 | 4.46e-07 | 4.8e-07 | 5.11e-07

From BigSolDB 2.1
